Reference: a melting point compilation (Tetko et al.; mined from patent text by program, amines drawn as free bases though some values may be those of a salt)

Row | SMILES | melting point [°C]
1 | NC(CCCBr)C(=O)c1ccccc1 (stereo not drawn) | 74 to 76
2 | O=C(NCCc1cccs1)C12CC3CC(CC1C3)C2 | 113 to 114
3 | CCC(CC)Nc1cc(C)nc(Oc2c(C)cc(Cl)cc2C)c1N | 72 to 74
4 | CNC(=NC#N)NCCSc1nccc(NC(N)=NCC(F)(F)F)n1 | 218 to 221
5 | COc1ccc(S(=O)(=O)c2nccn2C(C)C)cc1 | 84 to 86
6 | COc1ccc(Oc2nnn[nH]2)cc1 | 150
7 | CC12CC(Cl)C(O)CC1CCC1C2CCC2(C)C(O)C(N3CCCCC3)CC12 (stereo not drawn) | 232 to 234
8 | COC(=O)c1ccc(C2=NOC(P(=O)(OC)OC)C2)cc1 (stereo not drawn) | 93
9 | NC(=O)C1CCc2cc(S(=O)(=O)Cl)ccc2O1 (stereo not drawn) | 147 to 148
10 | Nc1n[nH]c2cc(Br)ccc12 | 222 to 225
11 | CC(C)(C)c1cc(C(C)(CC(=O)O)c2ccc(O)c(C(C)(C)C)c2)ccc1O | 156
12 | N#CCCNC(=O)C1=CC(CF)(CF)Oc2cc(Cl)c(Cl)cc21 | 135 to 136
13 | N#Cc1nn(-c2c(Cl)cc(C(F)(F)F)cc2Cl)c(Cl)c1C1CC1(Br)Br (stereo not drawn) | 104
14 | Cc1noc([C@@H]2CSCc3c(O)cc(O)c(C)c3C(=O)OC[C@@H](O)C(=O)N2)n1 | 265 to 267
15 | CN1CCOc2c(C(=O)O)cc(Cl)cc21 | 202 to 204
16 | CC(=O)Nc1c(C)c(C)c2c(c1C)CC(C)(C)O2 | 190
17 | COc1cc(C#N)ccc1OCCCBr | 99 to 101
18 | CC(C)(C)c1cc(C(=O)NCc2cccc(N)c2)cc(C(C)(C)C)c1O | 171 to 172
19 | COc1cc2cc(COC(C)=O)c(COC(C)=O)c(-c3ccncc3)c2cc1OC | 165 to 167
20 | CCCCCCCCCCCCCCCC(=O)Nc1cc(NC(=O)CCCCCCCCCCCCCCC)cc(C(=O)N(CC(=O)O)CC(=O)O)c1 | 129 to 133

Row | SMILES | melting point [°C]
21 | C[Si]1(C(CN)CC(=O)O)CCCCC1 (stereo not drawn) | 160 to 162
22 | CCCCCCc1ccc(C(=O)O)cc1[N+](=O)[O-] | 106 to 108
23 | NC(=O)NC(C(=O)O)c1cccs1 (stereo not drawn) | 183 to 185
24 | NS(=O)(=O)Oc1ccc(Cl)c(Cl)c1 | 121 to 123
25 | O=C(O)CN1C(=O)C(=CC2CC=CCC2)SC1=S (stereo not drawn) | 191 to 193
26 | Cc1nnc2n1-c1sc(CCc3ccc(CC(C)C)cc3)cc1C(c1ccccc1Cl)=NC2c1ccccc1 (stereo not drawn) | 170 to 172
27 | CCN(CC)CCOc1ccc([N+](=O)[O-])cc1NC(C)=O | 117
28 | Clc1ccc(Cl)c(CN2CCNc3ncc(C4=CCNCC4)cc32)c1 | 133 to 136
29 | COc1ccc(NC(=O)c2ccc(OC)c(C34CC5CC(CC(C5)C3)C4)c2)c([N+](=O)[O-])c1 | 208 to 210
30 | CC1COc2cnc3cc(Cl)ccc3c2N1 (stereo not drawn) | 215 to 217
31 | COC(=O)CCCCCCCCC(=O)c1ccccc1 | 37 to 38
32 | C#CC1(OC(C)=O)CCC2C3CCC4=CC(=O)CCC4C3C(C(F)F)CC21C (stereo not drawn) | 157 to 180
33 | C=CCOc1ccc(C(=O)C=Cc2cc(OC)cc(OC)c2)cc1 | 88.5 to 90
34 | COc1ccc2cc(C3=CCNCC3)sc2c1 | 124 to 127
35 | O=C(c1ccccc1)c1cnn2c(-c3cccc(NC(=O)C4CC4)c3)ccnc12 | 210 to 212
36 | CCOC(=O)c1nc(O)n2c1c(=O)n(C)c1cc(C(F)(F)F)ccc12 | > 300
37 | COc1ncc(C(F)(F)F)cc1-c1cccn2nc(Cl)nc12 | 183 to 185
38 | N#CC1=C(C2CCCCCC2)Nc2n[nH]cc2C1c1cccc(C#N)c1Br (stereo not drawn) | 252
39 | CCOC(=O)/C=C1\CCOc2ccc([N+](=O)[O-])cc21 | 135
40 | CCC(CC)Nc1nc(C)nc(Oc2c(C)cc(C)cc2C)c1N | 248 to 250

The remaining lines, values ahead:

Row | melting point [°C] | SMILES
41 | 93 to 94 | CC(C)N1CC2CC(CN(C(=O)Cc3ccc([N+](=O)[O-])cc3)C2)C1
42 | 156 to 159 | CSc1ncc2cc(Cc3ccccc3F)c(=O)n(C)c2n1
43 | 255 to 257 | COc1cc(C(F)(F)F)ccc1-c1ccc2c(c1)S(=O)(=O)NC(C1CCCCC1)N2 (stereo not drawn)
44 | 180 to 182 | CCC1CCN(Cc2ccc(COc3cccc4c3CN(C3CCC(=O)NC3=O)C4=O)cc2)CC1 (stereo not drawn)
45 | > 67 | CCCCN(Cc1ccc(-c2ccccc2S(=O)(=O)NC(=O)OC(C)(C)C)cc1)C(=O)N1CCCc2ccccc21
46 | 134 to 137 | CN(C(=O)CCl)C1(c2ccccc2)Cc2ccccc2C1
47 | 190 to 192 | CC(=O)Nc1cccc(-c2ccc3nc(-c4cccnc4N)n(-c4ccc(CNS(=O)(=O)c5cn(C)cn5)cc4)c3n2)c1
48 | 184 to 185 | CC(C)Oc1cc(CCC(=O)NS(=O)(=O)c2ccccc2)n(Cc2ccc(Cl)cc2Cl)n1
49 | 158 to 160 | COc1ccc2[nH]c(S(=O)Cc3ncc(F)c(N4CCOCC4)c3C)nc2c1 (stereo not drawn)
50 | 253 to 254 | O=C1CNc2ccc(S(=O)(=O)Oc3ccccc3)cc2N1
51 | 158 to 161 | Nc1ccc(C(=O)Nc2ccccc2C(c2ccc(O)cc2)c2ccc(O)cc2)cc1
52 | 248 to 250 | O=C(O)c1cccc(-c2nc3cc(N4CCCC4)ccc3o2)c1
53 | 221 to 222 | C=Cc1cc2ccc(-c3ccc(C(=O)OC)cc3)cc2cc1C12CC3CC(CC(C3)C1)C2
54 | 178 to 180 | COc1cc(OCCOCc2ccccc2)cc2nc(-c3cc(C)nc(C)c3)[nH]c(=O)c12
55 | 96 to 99 | Cc1cc(O)ccc1Oc1ccccc1
56 | 178 to 179 | CCn1ncc2c3noc(-c4cccc(C)c4)c3cnc21
57 | 81 to 83 | CCCCC(C(=O)c1ccc(Cl)cc1)n1cncn1 (stereo not drawn)
58 | 157 to 158 | COc1cc2c(cc1S(=O)(=O)c1ccccc1)[C@@H](N1CCCCC1=O)[C@H](O)C(C)(C)O2 (relative stereo)
59 | 203 to 205 | O=C(C=Cc1ccc(OC(F)(F)F)cc1)N1CCc2c([nH]c3ccccc23)C1c1ccc2c(c1)OCO2 (stereo not drawn)
60 | 138 to 140 | O=C1CCC(n2nc(-c3c(-c4ccccc4)nn4ccccc34)ccc2=O)CC1

Row | melting point [°C] | SMILES
61 | 114 to 117 | CSc1ccc(CC2CCc3cc(OCCn4ccnc4)ccc3C2=O)cc1 (stereo not drawn)
62 | 235 to 239 | CCn1cc(C)c(NS(=O)(=O)c2ccc(NC(C)=O)cc2)nc1=O
63 | 103 | CCc1ccc(-c2ccc(Cl)cc2)cc1
64 | 215 to 216 | COc1ccc(Oc2c(SCc3ccccc3)cc(C(=O)O)cc2S(N)(=O)=O)cc1
65 | 163 to 164 | COC(=O)C1=C(O)c2sc3ccccc3c2S(=O)(=O)N1Cc1ccc(OC)cc1
66 | 294 to 295 | O=C(O)c1ccc(-c2cnc(-c3ccc(C(F)(F)F)cc3)s2)cc1
67 | > 220 | CC1=NOC(c2c(S(C)(=O)=O)ccc(C(=O)c3cnn(C4CC4)c3O)c2Cl)C1 (stereo not drawn)
68 | 139 to 141 | Cc1cnc2cccc(Oc3cc(-c4ccc(C(F)(F)F)cc4)ncn3)c2n1
69 | 120 to 122 | CCc1ccc(S(=O)(=O)Nc2ccc(Cl)cc2)cc1
70 | 95 to 96 | CCOc1nn(Cc2ccc(OCc3cccc(-c4ccccc4)n3)cc2)cc1CCC(=O)O
71 | 69 to 71 | BrCCCCCCCn1c(-c2ccccc2)nc(-c2ccccc2)c1-c1ccccc1
72 | 314 | CC(=O)Nc1ccc(-c2cn(-c3nc(-c4ccc(C(F)(F)F)cc4)cc(C(F)(F)F)n3)cn2)cn1
73 | 146 to 148 | Cc1ccccc1C(Oc1cc(OCc2ccsc2)ccc1C#N)C(=O)O (racemic)
74 | 116 to 118 | CC(C)=CCOc1ccc2c(=O)c3ccccc3oc2c1C(=O)C=Cc1ccccc1
75 | 229 to 231 | CC(C)c1nc2c(N)nc3ccccc3c2n1CCOc1ccccc1
76 | 169 to 171 | CCCCOC(=O)COc1ccc(C(=O)Nc2ccccc2Sc2cc(OC)ccc2-c2nnn[nH]2)cc1
77 | 175 to 176 | CC(NC(=O)N1CCc2cc(S(=O)(=O)N3CCN(c4cccc(Cl)c4)CC3)ccc21)C(=O)O (stereo not drawn)
78 | 134 to 135 | O=C(O)Cc1cccc(OCCCCc2cc(-c3ccc(C(F)(F)F)cc3)no2)c1
79 | 212 to 214 | O=C(O)c1ccc(C(=O)/C=C/c2ccc(N3CCCC3)c(-c3cccs3)c2)cc1
80 | 204 to 209 | COc1cc(O)c(-c2ccccc2)nn1

Row | melting point [°C] | SMILES
81 | 216 to 218 | Nc1nc(NCc2cccc(F)c2)nc2nc(-c3ccco3)nn12
82 | 186 to 187 | Cc1ccc(C(=O)NNc2ccc(NC(=S)Nc3ccccc3)cc2)cc1
83 | 235 | Cc1nc(NC(=O)c2cnn3c(C(F)(F)F)cc(-c4ccc(C(F)(F)F)cc4)nc23)sc1S(=O)(=O)NCCN(C)C
84 | 239 | CC(C)(C)OC(=O)N1CC=C(C#Cc2ccc3c(c2)NC(=O)CC(c2cccc(C#N)c2)=N3)CC1
85 | > 250 | CC(C)n1nc(-c2[nH]c(=O)c(N)nc2-c2ccccc2)ccc1=O
86 | 197 to 199 | Oc1ccccc1-c1nc(-c2ccccc2O)n(Cc2ccncc2)n1
87 | 142 | CC(C)n1cnc2c(Nc3cccc(F)c3)nc(NCCO)nc21
88 | 160 to 162 | CCCc1nc(OC)c(NC(=S)N2CCN(c3cccc(O)c3)CC2)cc1C
89 | 174 to 175 | Cc1cc(CCc2cc(O)c(=O)[nH]n2)ccc1C(F)(F)F
90 | 51 to 52 | CC(CC1CCCCC1)C(=O)COS(=O)(=O)c1ccccc1 (stereo not drawn)
91 | 185 | CC(C)(c1ccc(C(O)(C(F)(F)F)C(F)(F)F)cc1)S(=O)(=O)c1ccccc1
92 | 178 | O=C(ON1C(=O)CCC1=O)c1ccccc1
93 | 167 to 169 | CCCCc1nc2c(N)nc3ccc(OCC(=O)N(C)Cc4ccccc4)cc3c2n1C
94 | > 250 | CC(C)n1nc(-c2sc(NC(=O)c3ccc(Cn4ccnc4)cc3)nc2-c2ccccc2)ccc1=O
95 | 159 to 161 | CC(C)n1c(/C=C/C=O)c(-c2ccc(F)cc2)c2ccccc2c1=O
96 | 164 | O=C(Nc1ccccc1S(=O)(=O)c1ccccc1)N[C@@H](Cc1ccc(Oc2nccc3ccncc23)cc1)C(=O)O
97 | 70 to 71 | CCCCc1nc2ccccc2n1CC(=O)O
98 | 157 | O=C(CC1CCN(Cc2ccccc2)CC1)Nc1cncnc1NCc1ccc(F)cc1
